Test system: 186277-243-T-J2-PDC spheroids with HUVEC/MSC, viability
Assay: Anticancer human tumor 186277-243-T-J2-PDC patient-derived colon adenocarcinoma cell line growth inhibition [CLK]
Settings: for IC50: curve of first compound; for viability, T/C: stronger effect = lower value
Excerpt: A high-throughput screen of multi-cell type tumor spheroids was designed to identify active combinations of […] and targeted small molecules. Complex spheroids include a stromal component modeled by human endothelial cells (HUVEC) and fibroblasts modeled by human mesenchymal stem cells (MSCs). The concentration ranges selected for each drug and investigational agent were based upon clinically achievable concentrations if the clinical Cmax of the agent was known.
Compounds. The drugs and investigational agents: cirtuvivint (SM08502; NSC835563), CC-671 (NSC850746), vemurafenib (NSC761431), tapotoclax (NSC804041), sotorasib (NSC818433), adagrasib (NSC831453), MRTX-1133 (NSC836407), BAY2416964 (NSC825713), copanlisib (NSC816437), inavolisib (NSC800729), abemaciclib (NSC768073), osimertinib (NSC779217), entinostat (NSC756642), eltanexor (KPT-8602, NSC794443), venetoclax (NSC766270), ceralasertib (NSC777638), bortezomib (NSC756655), olaparib (NSC753686), talazoparib (NSC767125), alisertib (NSC759677), peposertib (NSC802822), gemcitabine (NSC613327), 5-fluorouracil (NSC19893), SN-38 (NSC673596), oxaliplatin (NSC266046), paclitaxel (NSC125973), and doxorubicin (NSC123127), were obtained from the National Cancer Institute (NCI) Developmental Therapeutics Program Chemical Repository. The FDA-approved anticancer drug set is available from the Developmental Therapeutics Program at https://dtp.cancer.gov/organization/dscb/obtaining/available plates.htm. […] The stock solutions were prepared in dimethyl sulfoxide (DMSO, Sigma-Aldrich, St. Louis, MO, cat. D2650), except for the platinum complexes which were prepared in saline (Quality Biological, Gaithersburg, MD, cat. 114-055-101), at 800-fold the tested concentration and stored at -70 degrees C prior to their use. All drugs and investigational agents were tested over a range starting from a high concentration at or near the clinical Cmax and decreasing in half-log increments. If the clinical Cmax for an agent had not been determined, the highest concentration tested was 10 microM.
Cell Culture. All cells were maintained in an incubator at 37 degrees C and 5% CO2 with 95% humidity. The PDC lines were cultured according to standard operating procedures established by the NCI PDMR. Briefly, all PDCs were thawed and cultured in Matrigel-coated flasks prepared with a working solution of 1X Ham's F-12 nutrient mix, without supplementation (Invitrogen, Waltham, MA, cat. 11765054), 100 U/mL penicillin-streptomycin (Invitrogen, cat. 15140122), and 2.5% Matrigel (Corning Inc., Corning, NY, cat. 354248) for the first three passages. The 947758-054-R-J2-PDC line was cultured in 6B/Colon 1A media, which includes advanced DMEM/F-12 (Thermo Fisher Scientific, cat. 12634028), 10 mM HEPES (Thermo Fisher Scientific, cat. 15630080), 1X GlutaMAX supplement (Thermo Fisher Scientific, cat. 35050061), 0.1 mg/mL primocin (InvivoGen, cat. ant-pm-2), 10% defined fetal bovine serum, heat inactivated (HyClone Laboratories Inc., cat. SH30070.03HI), 1.25 mM N-Acetyl-L-cysteine (Sigma-Aldrich, cat. A9165), 10 mM nicotinamide (Sigma-Aldrich, cat. N0636), 1X B-27 supplement (Thermo Fisher Scientific, cat. 17504044), 1X N-2 supplement (Thermo Fisher Scientific, cat. 17502048), and 10 microM Y-27632 dihydrochloride (Tocris Bioscience, cat. 1254). The 876862-298-R-J1-PDC was cultured in 6E media, which includes all 6B/Colon 1A media components plus 50% L-WRN conditioned media (ATCC, cat. CRL-3276), 50 ng/mL recombinant human EGF recombinant protein (hEGF; Thermo Fisher Scientific, cat. PHG0311), 10 ng/mL recombinant human fibroblast growth factor 10 (hGFG-10; PeproTech, cat. 100-26), 1 ng/mL recombinant human fibroblast growth factor 2 (hFGF-2; PeproTech, cat. 100-18B), and 1 µM prostaglandin E2 (PGE2; Tocris, cat. 2296). The 227483-062-R1-J1-PDC line was cultured in Panc media, containing all 6E components except hFGF-2, with the addition of 500 nM SB-431542 (Selleckchem, cat. S1067) and 10 nM gastrin (Tocris, cat. 3006). […]
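Also: compound exposure lasted seven days before readout.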
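For viability, T/C in this document: 100% = DMSO vehicle control wells.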

For `C=C(F)C(=O)N1CCN(c2nc(OCC3CCCN3C)nc3c2CCN(c2cccc4cccc(Cl)c24)C3)CC1CC#N` (configuration not stated) + CNC(=O)c1ccc(Nc2nc(OC3CCCC3)c3c(-c4ccc5nc(C)oc5c4)c[nH]c3n2)c(OC)c1, the IC50 (second compound 0.0316 µM) was 5.73 µM, the IC50 (second compound 0.1 µM) was 4.22 µM and the IC50 (second compound 0.316 µM) was < 0.0316 µM. For the same molecule, the IC50 (second compound 1 µM) was < 0.0316 µM, the IC50 (second compound 3.16 µM) was < 0.0316 µM and the IC50 (second compound 10 µM) was < 0.0316 µM. It also gave a viability, T/C (second compound 0.0316 µM, first compound 0.0316 µM) of 98%, a viability, T/C (second compound 0.0316 µM, first compound 0.1 µM) of 96.1% and a viability, T/C (second compound 0.0316 µM, first compound 0.316 µM) of 99.2%. For the same molecule, the viability, T/C (second compound 0.0316 µM, first compound 1 µM) was 93.8%, the viability, T/C (second compound 0.0316 µM, first compound 3.16 µM) was 114% and the viability, T/C (second compound 0.0316 µM, first compound 10 µM) was 3.01%. For the same molecule, the viability, T/C (second compound 0.1 µM, first compound 0.0316 µM) was 68.4%, the viability, T/C (second compound 0.1 µM, first compound 0.1 µM) was 70.6% and the viability, T/C (second compound 0.1 µM, first compound 0.316 µM) was 69.8%. For the same molecule, the viability, T/C (second compound 0.1 µM, first compound 1 µM) was 61.2%, the viability, T/C (second compound 0.1 µM, first compound 3.16 µM) was 65.9% and the viability, T/C (second compound 0.1 µM, first compound 10 µM) was 2.67%. The viability, T/C (second compound 0.316 µM, first compound 0.0316 µM) was 45.1%, the viability, T/C (second compound 0.316 µM, first compound 0.1 µM) was 48.2% and the viability, T/C (second compound 0.316 µM, first compound 0.316 µM) was 42.7%. It also gave a viability, T/C (second compound 0.316 µM, first compound 1 µM) of 46%, a viability, T/C (second compound 0.316 µM, first compound 3.16 µM) of 48.1% and a viability, T/C (second compound 0.316 µM, first compound 10 µM) of 0.4%. The viability, T/C (second compound 1 µM, first compound 0.0316 µM) was 36%, the viability, T/C (second compound 1 µM, first compound 0.1 µM) was 39.8% and the viability, T/C (second compound 1 µM, first compound 0.316 µM) was 34.5%. For the same molecule, the viability, T/C (second compound 1 µM, first compound 1 µM) was 35.9%, the viability, T/C (second compound 1 µM, first compound 3.16 µM) was 36.7% and the viability, T/C (second compound 1 µM, first compound 10 µM) was 1.8%. The viability, T/C (second compound 3.16 µM, first compound 0.0316 µM) was 37.3%, the viability, T/C (second compound 3.16 µM, first compound 0.1 µM) was 35.2% and the viability, T/C (second compound 3.16 µM, first compound 0.316 µM) was 32.3%. The viability, T/C (second compound 3.16 µM, first compound 1 µM) was 36.7%, the viability, T/C (second compound 3.16 µM, first compound 3.16 µM) was 34.1% and the viability, T/C (second compound 3.16 µM, first compound 10 µM) was 0.54%. It also gave a viability, T/C (second compound 10 µM, first compound 0.0316 µM) of 37.3%, a viability, T/C (second compound 10 µM, first compound 0.1 µM) of 35.4% and a viability, T/C (second compound 10 µM, first compound 0.316 µM) of 37.9%. It also gave a viability, T/C (second compound 10 µM, first compound 1 µM) of 38%, a viability, T/C (second compound 10 µM, first compound 3.16 µM) of 27.1% and a viability, T/C (second compound 10 µM, first compound 10 µM) of 0.4%.
